Assay results: PubChem BioAssay (NCI)
“And” between values parts separate entries of the source, which are not always exact repeats. Equal entries are not always repeated.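 Five concentrations, 48 hours, 96-well plates. GI50 marks 50% less growth. The concentration for full growth arrest is given as TGI.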

Tests used:
Assay in all cases: NCI anticancer screen, dose series, 48 h
OVCAR-5 ovarian = test system: OVCAR-5 ovarian
CCRF-CEM leukemia = test system: CCRF-CEM leukemia
NCI-H23 lung = test system: NCI-H23 lung
U251 CNS = test system: U251 CNS
RXF 393 renal = test system: RXF 393 renal
OVCAR-8 ovarian = test system: OVCAR-8 ovarian
OVCAR-4 ovarian = test system: OVCAR-4 ovarian
MALME-3M melanoma = test system: MALME-3M melanoma
A549 NSCLC = test system: A549 NSCLC
NCI-H226 lung = test system: NCI-H226 lung

Row | Compound | TGI (OVCAR-5 ovarian) | TGI (CCRF-CEM leukemia) | TGI (NCI-H23 lung) | TGI (U251 CNS) | TGI (RXF 393 renal) | TGI (OVCAR-8 ovarian) | TGI (OVCAR-4 ovarian) | TGI (MALME-3M melanoma) | TGI (A549 NSCLC) | TGI (NCI-H226 lung) | GI50 (OVCAR-5 ovarian) | GI50 (CCRF-CEM leukemia) | GI50 (NCI-H23 lung) | GI50 (U251 CNS) | GI50 (RXF 393 renal) | GI50 (OVCAR-8 ovarian) | GI50 (OVCAR-4 ovarian) | GI50 (MALME-3M melanoma) | GI50 (A549 NSCLC) | GI50 (NCI-H226 lung)
1 | CCOC(=O)c1cc(=O)n(C)c(=O)n1C | > 100 µM | > 100 µM | > 100 µM | > 100 µM | > 100 µM | > 100 µM | > 100 µM | > 100 µM | > 100 µM | > 100 µM |  |  |  |  |  |  |  |  |  | 
2 | N#Cc1c2ccccc2c(Cc2ccc3c(c2)OCCOCCOCCOCCOCCO3)c2ccccc12 | 30.1 µM | > 100 µM | 25.3 µM | 26.2 µM | 7.94 µM | 18.3 µM | 17.4 µM | 20.3 µM | 16.7 µM | 24.3 µM |  |  |  |  |  |  |  |  |  | 
3 | Brc1ccccc2cc(-c3ccccc3)nc1-2 | 35 µM | > 48.5 µM | 21.2 µM | 37.5 µM | 16.7 µM | > 50.2 µM | 19.8 µM | 20.4 µM | 53 µM | 37.7 µM |  |  |  |  |  |  |  |  |  | 
4 | COC(=O)[C@]12CC[C@@H](C)[C@H](C)[C@@H]1C1=CC[C@@H]3[C@@]4(C)C(C=O)=C[C@@](C)(CO)[C@@H]4[C@H](O)C[C@@]3(C)[C@]1(C)CC2 | 17.9 µM | 13.7 µM | 12.2 µM | 13.8 µM | 8.75 µM | 14.4 µM | 16.8 µM | 10.4 µM | 14.6 µM | 46.9 µM | 3.47 µM | 3.73 µM | 2.97 µM | 3.83 µM | 2.64 µM | 3.51 µM | 4.17 µM | 2.62 µM | 4.15 µM | 13.9 µM
5 | O=S(=O)(NC1=NCCN1C(=S)SN1CCn2c1nsc2=S)c1ccc(Oc2ccccc2)cc1 | > 100 µM |  | > 100 µM | > 100 µM | 86.1 µM | > 100 µM | > 100 µM | > 100 µM | > 100 µM | > 100 µM | > 100 µM |  | 43 µM | > 100 µM | 32.4 µM | > 100 µM | 79.1 µM | 26.2 µM | > 100 µM | > 100 µM
6 | Cc1ccccc1NC(=O)Cc1nc2ccccc2s1 | 36.3 µM | 33 µM | 27.8 µM | 24.1 µM | 33 µM | 32.4 µM | 32.5 µM | 30 µM | 33.6 µM | 34.9 µM |  |  |  |  |  |  |  |  |  | 
7 | O=S1(=O)c2ccccc2N(c2ccccc2)c2nnnn21 | > 100 µM | 31 µM | 59.6 µM | > 100 µM | 49.5 µM | > 100 µM | 70.4 µM |  | > 100 µM | > 100 µM |  |  |  |  |  |  |  |  |  | 
8 | Cc1ccc(N(C=O)c2c([N+](=O)[O-])cc([N+](=O)[O-])c3c2=[N+]([O-])CN=3)cc1 | > 100 µM |  | 68.1 µM | 79.9 µM | 42 µM | > 100 µM | > 100 µM | 43.1 µM | > 100 µM | > 100 µM |  |  |  |  |  |  |  |  |  | 
9 | COc1ccc(Oc2nc3cc(N)cc(N)c3nc2-c2ccccc2)cc1 | > 100 µM | 12.6 µM | > 100 µM | > 100 µM | 73.9 µM | > 100 µM | 24.6 µM | > 100 µM | > 100 µM |  | 94.5 µM | 2.97 µM | 25.2 µM | 26.6 µM | 19.9 µM | 32.3 µM | 3.75 µM |  | 37.4 µM | 
10 | O=C(Oc1ccccc1)N(c1ccccc1)c1ccccc1 | > 100 µM | > 100 µM | 84.7 µM | > 100 µM | 92.6 µM | > 100 µM | > 100 µM | 91.4 µM | > 100 µM | > 100 µM | 45.9 µM | 37 µM | 21.9 µM | 31.1 µM | 25.8 µM | 31.8 µM | 25.1 µM | 25 µM | 26.2 µM | 33.7 µM
11 | CCOC(=O)C1=C(OC(OCC)C([Se]c2ccccc2)C(C)C)CCC1 (configuration not stated) | 59.4 µM | 27.8 µM | 22.3 µM | 16.6 µM | 21.9 µM | 27.4 µM | 32.9 µM | 81.9 µM | > 100 µM | 37.4 µM |  |  |  |  |  |  |  |  |  | 
12 | C/C=C/C(=O)Oc1cccc2cccnc12 | > 100 µM | 31.7 µM | 29 µM | 12.9 µM | 41.1 µM | 54.3 µM | 22 µM | 8.94 µM | > 100 µM | 68.6 µM |  |  |  |  |  |  |  |  |  | 
13 | COc1cc(OCc2ccccc2)c2c(CCC(=O)O)cc(=O)oc2c1 (tested in a mixture with another compound) | > 100 µM | > 100 µM | > 100 µM | > 100 µM |  | > 100 µM | > 100 µM | > 100 µM | > 100 µM | > 100 µM |  |  |  |  |  |  |  |  |  | 
14 | CC(=O)[CH-]C(=O)c1ccccc1.CC(=O)[CH-]C(=O)c1ccccc1.Cl.[O-]c1ccnc2ccccc12.[O-]c1ccnc2ccccc12.[Ti+4] | > 100 µM | > 100 µM | > 100 µM | > 100 µM |  | > 100 µM | > 100 µM | > 100 µM |  | > 100 µM | > 100 µM | > 100 µM | > 100 µM | > 100 µM |  | > 100 µM | > 100 µM | > 100 µM |  | > 100 µM
15 | COC(=O)C1=CC2C(=O)OC1C1C(=O)NC(=O)C21 (configuration not stated) |  | > 100 µM | > 100 µM | > 100 µM |  | > 100 µM | > 100 µM | > 100 µM | > 100 µM |  |  |  |  |  |  |  |  |  |  | 
16 | COc1cccc2c1C(=O)c1c(O)c3c(c(O)c1C2=O)C[C@@](O)(C(=O)CO)CC3OC1CC(N)C(OC2CCCCO2)C(C)O1 (some centres not stated) | 2.08 µM and 8.5 µM |  | 0.302 µM and 2.33 µM |  |  |  |  |  | 1.15 µM |  | 0.0682 µM | 0.00327 µM | 0.0218 µM | 0.00812 µM | 0.12 µM | 0.018 µM | 1.46 µM | 0.00377 µM | 0.00469 µM | 
17 | CCOC(=O)C1=C(C)NC(=O)NC1c1ccc(OC)cc1OC (configuration not stated) | > 100 µM | > 100 µM | > 100 µM | > 100 µM | > 100 µM | > 100 µM |  | > 100 µM | > 100 µM | > 100 µM |  |  |  |  |  |  |  |  |  | 
18 | CN(C)c1ccc(/C=C(\C#N)c2cc3ccccc3[nH]2)cc1 | > 100 µM | 14.3 µM | > 100 µM | 18.6 µM |  | > 100 µM | > 100 µM | > 100 µM | > 100 µM |  | 3.8 µM | 0.813 µM | 3.21 µM | 0.913 µM |  | 2.35 µM | 3.75 µM | 2.32 µM | 1.55 µM | 
